Measured values from patent publication US9713602B1, “Method for facilitating the oxygen release of hemoglobin-based blood substitutes” (National Sun Yat-sen University, priority 2016, dated 2017).
“Also recorded” adds a separate entry of the source.

Experiments:
hemoglobin = hemoglobin (Homo sapiens, UniProt P68871+P69905); assay: oxygen equilibrium curves / P50 value of hemoglobin; format: biochemical; conditions: for effect with 2,3-BPG in modulating hemoglobin allostery: FIG. 2
fetal hemoglobin (HbF) = fetal hemoglobin (HbF) (Homo sapiens, UniProt P69892+P69905); assay: oxygen equilibrium curves / P50 value of fetal hemoglobin (HbF); format: biochemical; conditions: for shift of the oxygen equilibrium curve of fetal hemoglobin (HbF): 0.6-4.0 mM compound with 0.6 or 2.5 mM 2,3-BPG (FIG. 9, 10); for oxygen affinity modulating effect (increase of P50 value) on fetal hemoglobin compared with 2,3-BPG: FIG. 8, varying concentrations; for oxygen release efficiency of fetal hemoglobin (HbF) relative to normal hemoglobin: with 2,3-BPG (FIG. 9, 10)
Sequence of fetal hemoglobin (HbF) (P69905 2-142 limits assumed): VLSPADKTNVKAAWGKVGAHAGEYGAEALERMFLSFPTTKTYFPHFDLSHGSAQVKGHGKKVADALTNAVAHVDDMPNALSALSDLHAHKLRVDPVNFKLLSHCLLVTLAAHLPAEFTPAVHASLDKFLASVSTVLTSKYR
Sequence of fetal hemoglobin (HbF) (P69892 2-147 limits assumed): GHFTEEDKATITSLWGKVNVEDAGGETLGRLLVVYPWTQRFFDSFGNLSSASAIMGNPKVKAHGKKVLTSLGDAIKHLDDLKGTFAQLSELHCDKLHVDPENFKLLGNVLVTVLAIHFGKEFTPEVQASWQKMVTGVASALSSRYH

Sequence of hemoglobin (P69905 2-142 limits assumed): as the sequence (P69905 2-142 limits assumed) above
Sequence of hemoglobin (P68871 2-147 limits assumed): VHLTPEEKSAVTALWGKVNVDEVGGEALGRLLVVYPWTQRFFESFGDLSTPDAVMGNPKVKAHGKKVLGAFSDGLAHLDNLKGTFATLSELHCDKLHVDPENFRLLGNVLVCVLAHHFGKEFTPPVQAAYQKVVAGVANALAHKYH

Compound: O=C(O)C(COP(=O)(O)O)OP(=O)(O)O (centres unmarked) [2,3-BPG, 2,3-bisphosphorglycerate]
- oxygen release efficiency of hemoglobin (hemoglobin; 1.2 mM 2,3-BPG, PO2 20 mmHg): 40%
- oxygen saturation fraction of hemoglobin (hemoglobin; 1.2 mM 2,3-BPG, PO2 20 mmHg (FIG. 7)): approximately 60%
- oxygen saturation fraction of hemoglobin (hemoglobin; 12 mM 2,3-BPG, fixed oxygen partial pressure of 20 mmHg, 80% where no 2,3-BPG is present): 35%
- oxygen release efficiency of hemoglobin (hemoglobin; 12 mM 2,3-BPG, oxygen partial pressure 20 mmHg, 20% without 2,3-BPG): 65%
- P50 value of hemoglobin (hemoglobin; approximately 4 mM 2,3-BPG, no phthalide compound): 18.8 mmHg
- oxygen release efficiency of normal cells (hemoglobin; varying concentrations of 2,3-BPG, PO2 of normal cells, from 20%): ~65%
- oxygen saturation fraction of hemoglobin (hemoglobin; varying concentrations of 2,3-BPG, brain physiological PO2 (33.8±2.6 mmHg), from 90% (FIG. 4)): ~70%
- oxygen release efficiency of hemoglobin (hemoglobin; varying concentrations of 2,3-BPG, brain physiological PO2, from 10%): 30%
- modulating effect of 2,3-BPG on fetal hemoglobin (HbF) relative to normal hemoglobin (fetal hemoglobin (HbF)): not as effective as that on the normal hemoglobin

Compound: CCC/C=C1\OC(=O)c2ccccc21 [Z-butylidenephthalide]
- shift of the oxygen equilibrium curve of fetal hemoglobin (HbF) (fetal hemoglobin (HbF)): effectively shift the oxygen equilibrium curve for the fetal hemoglobin (HbF) to the right; also recorded: effectively shift the oxygen equilibrium curve of the fetal hemoglobin (HbF) to the right
- oxygen affinity modulating effect (increase of P50 value) on fetal hemoglobin compared with 2,3-BPG (fetal hemoglobin (HbF)): stronger modulating effect than 2,3-BPG; also recorded: higher than that of 2,3-BPG
- oxygen release efficiency of fetal hemoglobin (HbF) relative to normal hemoglobin (fetal hemoglobin (HbF)): achieve the same oxygen release efficiency as the normal hemoglobin

Compound: CCC/C=C1\OC(=O)C2=C1CCC=C2 [Z-ligustilide]
- effect with 2,3-BPG in modulating hemoglobin allostery (hemoglobin): synergistic effect
- shift of the oxygen equilibrium curve of fetal hemoglobin (HbF) (fetal hemoglobin (HbF)): effectively shift the oxygen equilibrium curve for the fetal hemoglobin (HbF) to the right
- oxygen affinity modulating effect (increase of P50 value) on fetal hemoglobin compared with 2,3-BPG (fetal hemoglobin (HbF)): stronger modulating effect than 2,3-BPG; also recorded: higher than that of 2,3-BPG
- oxygen release efficiency of fetal hemoglobin (HbF) relative to normal hemoglobin (fetal hemoglobin (HbF)): achieve the same oxygen release efficiency as the normal hemoglobin

Compound: CCC/C=C1\OC(=O)C2=C1CC[C@@H](O)[C@@H]2O [senkyunolide I]
- effect with 2,3-BPG in modulating hemoglobin allostery (hemoglobin): synergistic effect
